In patent US20200131454A1, “ALCOHOL CONTAINING BIOFIILM-INHIBITING NON-ANTIMICROBIAL CLEANSING COMPOSITION” (GOJO Industries, Inc., priority 2018, published 2020):

What was measured:
[1] = Forearm controlled application test (FCAT), skin hydration by Corneometer; type: in vivo, human
Method: (§1) Topical compositions were tested on skin samples for their ability to improve or maintain skin hydration and limit transepidermal water loss (TEWL). Measurement of the TEWL, expressed in grams per square meter and per hour, is used for studying the water barrier function of the human skin. The more perfect the skin protective coat, the higher the water content and the lower the TEWL. For each of the tests, a negative control was used, which included treatment with 8% SLS. An untreated skin sample was also tested for comparison. The tests were performed using the forearm controlled application test (FCAT) methodology. The various samples were applied to test sites on a forearm over the course of several days. On each day, up to six applications were made and the change in TEWL and hydration levels were recorded. The hydration levels were measured using a Corneometer® based on capacitance measurement of a dielectric medium. The Corneometer® measures the change in the dielectric constant due to skin surface hydration changing the capacitance of a precision capacitor. The measurement can detect even slight changes in the hydration level.
The change in TEWL and hydration levels represent the change observed for that particular sample compared to a baseline (the transepidermal water content or hydration level prior to treatment). […]

[2] = Forearm controlled application test (FCAT), transepidermal water loss (TEWL); type: in vivo, human
Method: as §1, with “level. The change in TEWL and hydration levels represent the change observed for that particular sample compared to a baseline (the transepidermal water content or hydration level prior to treatment). […]” for “level.”

## CCCCCCCCCCCCOS(=O)(=O)[O-].[Na+] [negative control, SLS]
[1]; Example 1, FIG. 5, change compared to baseline
  hydration levels: lowest hydration levels
[1]; Example 2, FIG. 8, wet and dry application, 3 and 5 days of treatment
  change in hydration levels: significant reduction in hydration level
[2]; Example 1, FIG. 6, change compared to baseline
  TEWL: highest TEWL
[2]; Example 2, FIG. 7, wet and dry application, 3 and 5 days of treatment
  change in TEWL: significant TEWL
